Results reported in patent publication US8309554B2 (priority 2008, dated 2012).
Where two headings read alike, the source gives them in different places.

Legend:
H460 = assay: cells; type: cell-based; conditions: for IC50: Homo sapiens, NCI-H460, 2 h
HT29 = assay: cells; type: cell-based; conditions: for IC50: Homo sapiens, HT-29, 2 h
[1] = test system: H460 non small cell lung xenograft; conditions: mouse, in vivo
[2] = test system: HT 1080 sarcoma xenograft; conditions: mouse, in vivo
in vivo = conditions: mouse, ip

| Compound | H460 HCR: Air/N2 (H460) | IC50 (H460; read-out: 2 hr Air H460 IC50) | IC50 (H460; read-out: 2 hr N2 H460 IC50) | HT29 HCR: Air/N2 (HT29) | IC50 (HT29; read-out: 2 hr Air HT29 IC50) | IC50 (HT29; read-out: 2 hr N2 HT29 IC50) | tumor growth delay to 500 mm^3 [1] | tumor growth delay to 500 mm^3 ([2]; ip, 50 mg/kg) | MTD (in vivo) | tumor growth delay to 500 mm^3 [2] |
| --- | --- | --- | --- | --- | --- | --- | --- | --- | --- | --- |
| O=[N+]([O-])c1sccc1C(Cc1ccc(OCCO)nc1)S(=O)(=O)Oc1ccc(N(CCCl)CCCl)cc1 (stereo not shown) [TH-1315, 3-(4-(N,N-bis-(2-Chloroethyl)amino)phenoxysulfonyl-(2-(2-hydroxyethoxy)pyridin-5-yl-methyl))methyl-2-nitrothiophene] | 142 | 99.5 µM | 0.7 µM | >23 | > 300 µM | 13 µM | 19 days | 6 days | 50 mg/kg | – |
| COc1cccc2c1C(=O)c1c(O)c3c(c(O)c1C2=O)C[C@@](O)(C(=O)CO)C[C@@H]3O[C@H]1C[C@H](N)[C@H](O)[C@H](C)O1 [doxorubicin, reference compound] | – | – | – | – | – | – | – | – | – | 10 days |
